# Measured values from ChEMBL document CHEMBL5625242, “Discovery of brain permeable 2-Azabicyclo[2.2.2]octane sulfonamides as a novel class of presenilin-1 selective γ-secretase inhibitors” (Eur J Med Chem, 2023).
# What was measured:
# [1] = Inhibition of human PSEN1/APH1B expressed in MEF cells with Psen1/2 double knockout/Aph1ABC triple knockout by ELISA; type: cell-based
# [2] = Inhibition of human PSEN1/APH1A expressed in MEF cells with Psen1/2 double knockout/Aph1ABC triple knockout by ELISA; type: cell-based
# [3] = Inhibition of human PSEN2/APH1A expressed in MEF cells with Psen1/2 double knockout/Aph1ABC triple knockout by ELISA; type: cell-based
# [4] = Inhibition of human PSEN2/APH1B expressed in MEF cells with Psen1/2 double knockout/Aph1ABC triple knockout by ELISA; type: cell-based
# Homo sapiens [5] = organism: Homo sapiens; assay: Selectivity ratio of IC50 for human PSEN1/APH1A expressed in MEF cells with Psen1/2 double knockout/Aph1ABC triple knockout to IC50 for human PSEN1/APH1B expressed in MEF cells with Psen1/2 double knockout/Aph1ABC triple knockout; type: cell-based
# Homo sapiens [6] = organism: Homo sapiens; assay: Selectivity ratio of IC50 for human PSEN2/APH1A expressed in MEF cells with Psen1/2 double knockout/Aph1ABC triple knockout to IC50 for human PSEN1/APH1B expressed in MEF cells with Psen1/2 double knockout/Aph1ABC triple knockout; type: cell-based
# Homo sapiens [7] = organism: Homo sapiens; assay: Selectivity ratio of IC50 for human PSEN2/APH1B expressed in MEF cells with Psen1/2 double knockout/Aph1ABC triple knockout to IC50 for human PSEN1/APH1B expressed in MEF cells with Psen1/2 double knockout/Aph1ABC triple knockout; type: cell-based
# [8] = Ratio of unbound drug concentration in brain to plasma in Swiss mouse at 2.5 mg/kg, iv measured at 5 mins post-dose; type: ADME, organism-based; conditions: read-out: K(p,uu,brain)
# Cytochrome P450 1A2 = molecular target: T1, Cytochrome P450 1A2 (Homo sapiens, UniProt P05177); assay: Inhibition of human CYP1A2 using phenacetin as substrate by fluorescence based assay; type: ADME
# T1 sequence (P05177 whole entry): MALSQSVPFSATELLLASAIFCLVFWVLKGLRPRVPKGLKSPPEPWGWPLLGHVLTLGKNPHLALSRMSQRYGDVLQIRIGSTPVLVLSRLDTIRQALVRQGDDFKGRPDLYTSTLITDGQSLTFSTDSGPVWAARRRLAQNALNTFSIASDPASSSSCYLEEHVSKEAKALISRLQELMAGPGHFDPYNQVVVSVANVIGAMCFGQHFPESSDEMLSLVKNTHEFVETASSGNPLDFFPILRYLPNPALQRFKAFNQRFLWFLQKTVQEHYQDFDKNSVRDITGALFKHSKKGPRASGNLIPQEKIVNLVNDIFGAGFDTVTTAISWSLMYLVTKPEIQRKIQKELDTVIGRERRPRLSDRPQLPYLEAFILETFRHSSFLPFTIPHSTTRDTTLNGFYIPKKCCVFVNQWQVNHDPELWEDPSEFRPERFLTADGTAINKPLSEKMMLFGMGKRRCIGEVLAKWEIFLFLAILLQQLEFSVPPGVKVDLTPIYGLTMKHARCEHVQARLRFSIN
# Cytochrome P450 2C19 = Cytochrome P450 2C19 (Homo sapiens, UniProt P33261); assay: Inhibition of human CYP2C19 using S-mephenytoin as substrate by fluorescence based assay; type: ADME
# [9] = Kinetic solubility of compound at pH 7.4; type: physicochemical; conditions: buffer, read-out: Kinetic_solubility
# Cytochrome P450 3A4 = Cytochrome P450 3A4 (Homo sapiens, UniProt P08684); assay: Inhibition of human CYP3A4 using midazolam as substrate by fluorescence based assay; type: ADME
# sodium channel = assay: Inhibition of rat sodium channel; type: toxicity
# [10] = Free fraction in rat brain homogenate at 5 uM incubated for 5 hrs by HPLC-MS/MS analysis; type: ADME, tissue-based
# [11] = Protein binding in human plasma assessed as free fraction at 5 uM incubated for 4.5 hrs by HPLC analysis; type: ADME, cell-free
# human MDR1 [12] = assay: Efflux ratio of apparent permeability basal to apical side over apical to basal side in MDCK cells transfected with human MDR1 at 5 uM by LC-MS/MS analysis; type: ADME, cell-based, Canis lupus familiaris; conditions: dog
# [13] = Kinetic solubility of compound at pH 2; type: physicochemical; conditions: buffer, read-out: Kinetic_solubility
# Cytochrome P450 2D6 = Cytochrome P450 2D6 (Homo sapiens, UniProt P10635); assay: Inhibition of human CYP2D6 using dextrometorphan as substrate by fluorescence based assay; type: ADME
# [14] = Ratio of drug concentration in brain to plasma of Swiss mouse at 2.5 mg/kg, iv measured at 5 mins post-dose; type: ADME, organism-based; conditions: read-out: BPR
# Cytochrome P450 2C9 = Cytochrome P450 2C9 (Homo sapiens, UniProt P11712); assay: Inhibition of human CYP2C9 using tolbutamide as substrate by fluorescence based assay; type: ADME
# [15] = Protein binding in mouse plasma assessed as free fraction at 5 uM incubated for 4.5 hrs by HPLC analysis; type: ADME, cell-free
# [16] = molecular target: Voltage-gated inwardly rectifying potassium channel KCNH2 (Homo sapiens, UniProt Q12809); assay: Inhibition of hERG; type: toxicity
# [17] = Unbound drug concentration in Swiss mouse plasma at 2.5 mg/kg, iv measured at 5 mins post-dose; type: ADME, organism-based; conditions: in vivo
# [18] = Drug concentration in Swiss mouse plasma at 2.5 mg/kg, iv measured at 5 mins post-dose; type: ADME, organism-based
# [19] = Kinetic solubility of compound at pH 4; type: physicochemical; conditions: buffer, read-out: Kinetic_solubility
# human MDR1 [20] = assay: Apparent permeability across apical to basal side in MDCK cells transfected with human MDR1 at 5 uM by LC-MS/MS analysis; type: ADME, cell-based, Canis lupus familiaris; conditions: dog
# Cytochrome P450 2C8 = molecular target: T2, Cytochrome P450 2C8 (Homo sapiens, UniProt P10632); assay: Inhibition of human CYP2C8 using amodiaquine as substrate by fluorescence based assay; type: ADME
# T2 sequence (P10632 whole entry): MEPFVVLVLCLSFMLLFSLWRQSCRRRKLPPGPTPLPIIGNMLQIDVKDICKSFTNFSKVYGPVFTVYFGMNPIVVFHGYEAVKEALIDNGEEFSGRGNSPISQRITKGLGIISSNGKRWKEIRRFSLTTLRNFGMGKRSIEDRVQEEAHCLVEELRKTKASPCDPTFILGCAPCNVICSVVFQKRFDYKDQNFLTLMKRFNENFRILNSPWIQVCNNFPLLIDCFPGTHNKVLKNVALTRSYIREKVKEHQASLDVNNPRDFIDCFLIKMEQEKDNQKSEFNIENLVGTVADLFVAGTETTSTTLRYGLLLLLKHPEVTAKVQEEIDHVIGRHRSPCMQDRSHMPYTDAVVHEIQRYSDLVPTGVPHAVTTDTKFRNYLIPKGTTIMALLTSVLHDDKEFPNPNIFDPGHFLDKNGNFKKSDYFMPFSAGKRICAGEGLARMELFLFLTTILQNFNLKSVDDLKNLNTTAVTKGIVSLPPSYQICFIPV
# calcium channel = assay: Inhibition of rat calcium channel; type: toxicity
# [21] = Metabolic stability in mouse liver microsomes assessed as intrinsic clearance; type: ADME, Microsome; conditions: microsomes
# [22] = Metabolic stability in human liver microsomes assessed as intrinsic clearance; type: ADME, Microsome; conditions: microsomes
# [23] = Drug concentration in Swiss mouse brain at 2.5 mg/kg, iv measured at 5 mins post-dose; type: ADME, organism-based; conditions: read-out: Ct
# Cytochrome P450 3A4, sequence (P08684 whole entry): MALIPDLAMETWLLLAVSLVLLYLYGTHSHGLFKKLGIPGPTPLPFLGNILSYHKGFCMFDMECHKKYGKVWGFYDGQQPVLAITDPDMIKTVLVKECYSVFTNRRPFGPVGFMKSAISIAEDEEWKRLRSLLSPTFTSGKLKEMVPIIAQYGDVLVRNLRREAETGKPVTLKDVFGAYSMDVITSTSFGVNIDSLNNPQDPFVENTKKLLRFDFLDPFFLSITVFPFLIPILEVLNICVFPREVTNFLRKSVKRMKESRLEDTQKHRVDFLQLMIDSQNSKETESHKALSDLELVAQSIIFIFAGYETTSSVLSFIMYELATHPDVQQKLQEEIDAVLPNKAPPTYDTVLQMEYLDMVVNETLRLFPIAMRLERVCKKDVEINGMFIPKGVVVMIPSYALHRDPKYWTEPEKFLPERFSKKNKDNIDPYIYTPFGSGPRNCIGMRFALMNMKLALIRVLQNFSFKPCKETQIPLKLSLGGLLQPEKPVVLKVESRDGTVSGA
# Cytochrome P450 2C9, sequence (P11712 whole entry): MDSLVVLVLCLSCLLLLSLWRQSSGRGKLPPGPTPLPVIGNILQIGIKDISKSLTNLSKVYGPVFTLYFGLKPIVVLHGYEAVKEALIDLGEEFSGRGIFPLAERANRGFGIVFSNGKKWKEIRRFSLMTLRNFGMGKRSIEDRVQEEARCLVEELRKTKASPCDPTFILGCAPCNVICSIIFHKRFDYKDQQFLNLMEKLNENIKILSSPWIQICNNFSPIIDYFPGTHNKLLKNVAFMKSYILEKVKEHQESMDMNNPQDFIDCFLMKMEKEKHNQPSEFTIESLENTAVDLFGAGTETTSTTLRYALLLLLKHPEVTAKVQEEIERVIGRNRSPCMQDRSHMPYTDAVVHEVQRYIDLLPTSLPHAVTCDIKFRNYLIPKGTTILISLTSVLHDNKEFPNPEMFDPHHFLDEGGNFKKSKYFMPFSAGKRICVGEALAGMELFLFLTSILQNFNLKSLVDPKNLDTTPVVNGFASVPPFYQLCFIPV
# Voltage-gated inwardly rectifying potassium channel KCNH2, sequence (Q12809 whole entry): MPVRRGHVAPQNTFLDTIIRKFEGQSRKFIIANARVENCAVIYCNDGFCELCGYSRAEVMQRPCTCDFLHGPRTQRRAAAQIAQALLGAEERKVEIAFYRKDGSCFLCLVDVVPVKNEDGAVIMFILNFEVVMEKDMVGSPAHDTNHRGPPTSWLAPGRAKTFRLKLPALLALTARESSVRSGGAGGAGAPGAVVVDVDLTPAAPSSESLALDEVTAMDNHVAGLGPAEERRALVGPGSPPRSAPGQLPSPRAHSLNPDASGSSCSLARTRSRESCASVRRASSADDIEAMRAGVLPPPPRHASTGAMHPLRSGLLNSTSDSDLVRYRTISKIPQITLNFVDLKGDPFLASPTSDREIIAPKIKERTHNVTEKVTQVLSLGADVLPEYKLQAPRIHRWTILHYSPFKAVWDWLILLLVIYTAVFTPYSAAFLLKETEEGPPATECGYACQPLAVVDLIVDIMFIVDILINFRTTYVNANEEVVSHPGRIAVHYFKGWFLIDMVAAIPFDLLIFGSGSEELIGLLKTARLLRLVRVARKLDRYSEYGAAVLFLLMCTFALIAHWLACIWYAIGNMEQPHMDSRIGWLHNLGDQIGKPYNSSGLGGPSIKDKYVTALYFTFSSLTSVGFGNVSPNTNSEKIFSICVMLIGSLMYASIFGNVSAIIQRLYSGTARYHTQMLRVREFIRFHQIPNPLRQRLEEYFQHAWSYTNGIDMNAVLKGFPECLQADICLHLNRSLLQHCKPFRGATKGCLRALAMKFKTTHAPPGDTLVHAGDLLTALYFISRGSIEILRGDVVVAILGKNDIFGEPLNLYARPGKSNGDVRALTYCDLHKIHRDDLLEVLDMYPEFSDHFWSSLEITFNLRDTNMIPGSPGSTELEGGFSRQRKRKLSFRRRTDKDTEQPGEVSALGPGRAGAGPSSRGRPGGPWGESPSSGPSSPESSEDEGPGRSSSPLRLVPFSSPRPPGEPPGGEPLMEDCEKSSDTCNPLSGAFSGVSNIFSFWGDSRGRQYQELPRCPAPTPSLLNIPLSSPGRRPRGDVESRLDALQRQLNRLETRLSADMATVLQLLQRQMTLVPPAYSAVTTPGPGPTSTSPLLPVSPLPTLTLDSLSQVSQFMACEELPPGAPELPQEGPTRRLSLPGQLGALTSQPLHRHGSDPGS
# Cytochrome P450 2C19, sequence (P33261 whole entry): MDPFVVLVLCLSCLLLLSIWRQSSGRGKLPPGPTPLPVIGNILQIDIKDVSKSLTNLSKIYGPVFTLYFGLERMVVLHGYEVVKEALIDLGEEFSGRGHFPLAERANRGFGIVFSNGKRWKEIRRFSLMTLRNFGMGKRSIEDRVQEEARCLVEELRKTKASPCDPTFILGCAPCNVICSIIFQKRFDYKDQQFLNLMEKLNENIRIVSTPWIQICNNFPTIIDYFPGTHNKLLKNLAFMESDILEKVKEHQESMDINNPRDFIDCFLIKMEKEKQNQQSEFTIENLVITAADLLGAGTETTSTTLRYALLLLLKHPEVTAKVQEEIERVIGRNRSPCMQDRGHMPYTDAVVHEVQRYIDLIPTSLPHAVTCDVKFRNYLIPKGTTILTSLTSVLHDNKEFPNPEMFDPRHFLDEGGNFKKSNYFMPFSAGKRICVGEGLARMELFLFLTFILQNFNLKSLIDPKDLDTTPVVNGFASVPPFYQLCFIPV
# Cytochrome P450 2D6, sequence (P10635 whole entry): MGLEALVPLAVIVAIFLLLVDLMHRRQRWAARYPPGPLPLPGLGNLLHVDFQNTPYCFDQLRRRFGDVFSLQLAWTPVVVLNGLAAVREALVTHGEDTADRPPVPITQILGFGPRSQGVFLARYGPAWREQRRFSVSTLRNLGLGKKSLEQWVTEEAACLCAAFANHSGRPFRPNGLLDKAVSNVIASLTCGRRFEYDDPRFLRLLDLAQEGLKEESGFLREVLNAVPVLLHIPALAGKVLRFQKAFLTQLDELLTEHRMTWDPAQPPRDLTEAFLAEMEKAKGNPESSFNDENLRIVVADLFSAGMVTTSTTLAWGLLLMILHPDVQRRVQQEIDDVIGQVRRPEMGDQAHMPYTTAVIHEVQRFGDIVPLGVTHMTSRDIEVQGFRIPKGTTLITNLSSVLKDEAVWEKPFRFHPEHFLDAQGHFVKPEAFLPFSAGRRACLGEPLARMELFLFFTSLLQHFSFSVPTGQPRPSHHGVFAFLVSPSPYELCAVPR
structure (smiles),measurement,setting,value
N#Cc1ccc(S(=O)(=O)N2[C@H]3CC[C@H](C(=O)C3)[C@H]2c2ccc(C(F)(F)F)cc2)cc1 (racemic),IC50,[1],1550 nM
same,IC50,[2],> 10000 nM
same,IC50,[3],> 10000 nM
same,IC50,[4],> 10000 nM
same,Ratio IC50,Homo sapiens [5],> 40
COc1ccc(S(=O)(=O)N2[C@H]3CC[C@H](C(=O)C3)[C@H]2c2ccc(C(F)(F)F)cc2)cc1 (racemic),IC50,[1],1440 nM
same,IC50,[2],> 10000 nM
same,IC50,[3],> 10000 nM
same,IC50,[4],> 10000 nM
same,Ratio IC50,Homo sapiens [5],> 40
O=S(=O)(c1ccc(Cl)cc1)N1[C@H]2CC[C@@H]([C@H]1c1ccc(C(F)(F)F)cc1)[C@@H](O)C2 (racemic),Ratio IC50,Homo sapiens [6],> 390
same,Ratio IC50,Homo sapiens [5],> 5
same,Ratio IC50,Homo sapiens [7],> 330
N#Cc1ccc([C@@H]2[C@@H]3CC[C@@H](C[C@@H]3O)N2S(=O)(=O)c2ccc(Cl)cc2)cn1,IC50,[1],12.9 nM
same,Kp uu at 5 min,[8],0.68
same,IC50,Cytochrome P450 1A2,> 10000 nM
same,IC50,Cytochrome P450 2C19,> 10000 nM
same,solubility kinetic,[9],7 µM
same,IC50,Cytochrome P450 3A4,> 10000 nM
same,IC50,sodium channel,> 10000 nM
same,IC50,[2],72 nM
same,"fraction unbound at 5 h, 5 µM",[10],0.119
same,"fraction unbound at 4.5 h, 5 µM",[11],0.156
same,efflux ratio at 5 µM,human MDR1 [12],32.3
same,solubility kinetic,[13],13 µM
same,IC50,[3],1230 nM
same,IC50,Cytochrome P450 2D6,> 10000 nM
same,IC50,[4],776 nM
same,Kp at 5 min,[14],0.5
same,IC50,Cytochrome P450 2C9,> 10000 nM
same,"fraction unbound at 4.5 h, 5 µM",[15],0.0869
same,IC50,[16],> 10000 nM
same,Cp(f),[17],63.5 ng/mL
same,concentration at 5 min,[18],731 ng/mL
same,solubility kinetic,[19],13 µM
same,Papp A→B at 5 µM,human MDR1 [20],2.5 ×10⁻⁶ cm/s
same,IC50,Cytochrome P450 2C8,> 10000 nM
same,IC50,calcium channel,> 10000 nM
same,CLH,[21],110 µL/min/mg
same,CLH,[22],78.4 µL/min/mg
same,concentration at 5 min,[23],363 ng/g
N#Cc1ccc([C@@H]2[C@@H]3CC[C@@H](C[C@@H]3O)N2S(=O)(=O)c2ccc(Cl)cc2)c(F)c1 (racemic),IC50,[1],2.4 nM
same,Ratio IC50,Homo sapiens [6],40
same,IC50,[2],6.9 nM
same,IC50,[3],147 nM
same,IC50,[4],257 nM
same,Ratio IC50,Homo sapiens [5],2
same,Ratio IC50,Homo sapiens [7],100
COc1ccc([C@@H]2[C@@H]3CC[C@@H](CC3=O)N2S(=O)(=O)c2ccc(Cl)cc2)cn1 (racemic),IC50,[1],195 nM
same,Ratio IC50,Homo sapiens [6],> 5
same,IC50,[2],794 nM
same,IC50,[3],> 10000 nM
same,IC50,[4],> 10000 nM
same,Ratio IC50,Homo sapiens [7],> 5
O=C1C[C@@H]2CC[C@H]1[C@@H](c1ccc(F)c(F)c1)N2S(=O)(=O)c1ccc(Cl)cc1 (racemic),IC50,[1],1120 nM
same,IC50,[2],> 5370 nM
same,IC50,[3],> 10000 nM
same,IC50,[4],> 10000 nM
same,Ratio IC50,Homo sapiens [5],> 3
O=C1C[C@@H]2CC[C@H]1[C@@H](c1ccc(Cl)cc1)N2S(=O)(=O)c1ccc(Cl)cc1 (racemic),IC50,[1],182 nM
same,Ratio IC50,Homo sapiens [6],> 5
same,IC50,[2],1350 nM
same,IC50,[3],> 10000 nM
same,IC50,[4],> 10000 nM
same,Ratio IC50,Homo sapiens [7],> 5
O=C1C[C@@H]2CC[C@H]1[C@@H](c1ccc(OC(F)(F)F)cc1)N2S(=O)(=O)c1ccc(Cl)cc1 (racemic),IC50,[1],190 nM
same,Ratio IC50,Homo sapiens [6],> 5
same,IC50,[2],1620 nM
same,IC50,[3],> 10000 nM
same,IC50,[4],> 10000 nM
same,Ratio IC50,Homo sapiens [7],> 5
